Read-outs that look alike come from different tables or passages of the source.
What was measured:
[1] = BET active surface area; assay type: physicochemical
Description: BET theory explains the physical adsorption of gas molecules onto a solid surface. The theory serves as the basis for the measurement of the specific surface area of a material. This theory allows the calculation of surface areas of materials in a very accurate manner and is thus capable of distinguishing differences between separate preparations of what would otherwise appear to be the same material. For example, activated carbon is a form of carbon that has been processed to make it extremely porous and thus to have a very large surface area. Activated carbon has been experimentally determined, using calculations derived from BET theory, to have a surface area of around 3000 m^2 g^−1.

[2] = tested on: patients with end-stage renal disease (ESRD) on dialysis; experiment: Three-period trial of ferric citrate as phosphate binder: 52-week randomized, open-label, active control Safety Assessment Period; assay type: in vivo, human
Method: This trial was a three-period, multicenter, safety and efficacy clinical trial.
Patients were followed on their randomized assignment for safety assessments over 52 weeks.
Calcium acetate 667 mg capsules and sevelamer carbonate 800 mg tablets were used and were supplied by Keryx Biopharmaceuticals, Inc. (Keryx) for the duration of the trial.
Serum phosphorus and calcium were checked at Visit 5 (Week 1), and every two weeks during the first 12 weeks after Visit 4 (Randomization Visit), and monthly for the rest of the Safety Assessment Period. During the Efficacy Assessment Period, serum phosphorus and calcium were drawn weekly. These values guided study drug administration. While on study drug, the use of other phosphate binders was not permitted. […] The titration of calcium acetate and sevelamer carbonate throughout the 52-week Safety Assessment Period were according to the current package inserts for these agents and/or at the discretion of the site PI.
Patients took study drug orally with or within one hour of meals or snacks. […] The PI or designee at each site dispensed the study drug to the patient and instructed the patient on how to administer it. It was recognized that some patients required a different distribution in pills in a given day due to snacks or missed meals.
Serum phosphorus and calcium were performed at Screening (Visit 0); weekly during the Washout Period after Visit 1 (Week −2); at Visit 4 (Randomization Visit); at Visits 5 (Week 1), 6 (Week 2), 7 (Week 4), 8 (Week 6), 9 (Week 8), 10 (Week 10), 11 (Week 12), 12 (Week 16), 13 (Week 20), 14 (Week 24), 15 (Week 28), 16 (Week 32), 17 (Week 36), 18 (Week 40), 19 (Week 44), 20 (Week 48), and 21 (Week 52) of the 52-week Safety Assessment Period; and at Visits 22 (Week 53), 23 (Week 54), 24 (Week 55) and 25 (Week 56) of the Efficacy Assessment Period. […]
The efficacy analyses were based on Full Analysis (FA) population that consisted of all patients who took at least one dose of study medication and provided baseline and at least one post-baseline efficacy assessment. The safety analyses were based on safety population that was consistent of all patients who took at least one dose of study medication.
There were two unique and distinct baseline assessments. The baseline for the Safety Assessment Period was the Randomization Visit (Visit 4) and was defined as “Week-0-baseline.” The baseline for the Efficacy Assessment Period was the last visit of the Safety Assessment Period (Visit 21. Week 52) and was defined as “study-baseline.”

[3] = Week 12, ANCOVA, Day-0 baseline covariate

With ferric citrate [RFS-12-1] the “BET Active Surface Area” value [1] was 0.61 m^2/g and the “BET Active Surface Area” value ([1]; Table 1, unit not given) was 0.61.

For ferric citrate [STM-134-1], the “BET Active Surface Area” value ([1]; Table 1, unit not given) was 16.17.

For sevelamer carbonate, the “Calcium, Mean (SD)” value ([2]; Baseline) was 9.056 (0.7291) MG/DL, the “Calcium, Median” value ([2]; Baseline) was 9.150 mg/dL and the “Product Of Calcium And Phosphorus, Mean (SD)” value ([2]; Baseline) was 68.0872 (16.29). The “Product Of Calcium And Phosphorus, Median” value ([2]; Baseline) was 66.2700, the “Phosphorus, Mean (SD)” value ([2]; Baseline (Table 12)) was 7.51 (1.633) MG/DL and the “Phosphorus, Median” value ([2]; Baseline (Table 12)) was 7.40 mg/dL. For the same substance, the “Calcium, Change from Baseline, Mean (SD)” value ([2]; Week 12) was 0.175 (0.7509) MG/DL, the “Calcium, Change from Baseline, Median” value ([2]; Week 12) was 0.100 mg/dL and the “Calcium, Mean (SD)” value ([2]; Week 12) was 9.231 (0.7210) MG/DL. The “Calcium, Median” value ([2]; Week 12) was 9.400 mg/dL, the “Product Of Calcium And Phosphorus, Change from Baseline, Mean (SD)” value ([2]; Week 12) was −20.0621 (19.17) and the “Product Of Calcium And Phosphorus, Change from Baseline, Median” value ([2]; Week 12) was −19.8500. For the same substance, the “Product Of Calcium And Phosphorus, Mean (SD)” value ([2]; Week 12) was 48.0251 (14.37), the “Product Of Calcium And Phosphorus, Median” value ([2]; Week 12) was 46.2800 and the “Phosphorus, Change from Baseline, Mean (SD)” value ([2]; Week 12 (Table 12)) was −2.28 (2.169) MG/DL. For the same substance, the “Phosphorus, Change from Baseline, Median” value ([2]; Week 12 (Table 12)) was -2.45 mg/dL, the “Phosphorus, Mean (SD)” value ([2]; Week 12 (Table 12)) was 5.23 (1.713) MG/DL and the “Phosphorus, Median” value ([2]; Week 12 (Table 12)) was 5.00 mg/dL. The “Calcium, LS Mean (SE)” value [2, 3] was 9.15 (0.08) MG/DL, the “Product Of Calcium And Phosphorus, LS Mean (SE)” value [2, 3] was 47.52 (1.50) and the “Phosphorus, LS Mean (SE)” value ([2]; Week 12, ANCOVA, Day-0 baseline covariate (Table 12)) was 5.22 (0.17) MG/DL.

With ferric citrate [Batch No. 35105] the “BET Active Surface Area” value [1] was 31.5 m^2/g.

In the case of ferric citrate [Batch No. 35102], the “BET Active Surface Area” value [1] is reported as 30.6 m^2/g.

In the case of ferric citrate [Batch No. 35103], the “BET Active Surface Area” value [1] is reported as 29.1 m^2/g.

For ferric citrate [STM-182-1], the “BET Active Surface Area” value ([1]; Table 1, unit not given) was 19.85.

With ferric citrate [Batch No. 35106] the “BET Active Surface Area” value [1] was 28.5 m^2/g.

— patent US20150079168A1 (Keryx Biopharmaceuticals, Inc., priority 2012, published 2015)
